# Experimental data as given in US5925621A, “Method for preventing sexually transmitted diseases” (priority 1997, dated 1999).
# Columns and labels:
# MT2 cells = assay: cytotoxicity of test compound towards host (MT2) cells; assay type: cell-based; settings: at the levels of Example 5
# Protocol: Serial dilutions of the test compounds (ranging from 0.1 μg/ml to 1.0 mg/ml) were added to HIV-1 virus such that 50 μl inoculum produced between 70 to 100 syncytia per well in untreated wells containing MT2 cells. The HIV-1 used was strain IIIs propagated in, and harvested from, a T4-lymphobastoid cell line. Each serial dilution of the test compound with virus was placed in each of three wells containing MT2 cells. The test compound alone was added to a fourth well containing MT2 cells to test for possible cytotoxicity. Triplicate virus control samples (no added test compounds but containing the equivalent amounts of the RPMI medium) were also included.
# [1] = test system: sheep testicular hyaluronidase; assay: hyaluronidase inhibition (hyaluronic acid hydrolysis); assay type: biochemical; settings: 10 minutes preincubation, pH 5.5; inactive = no inhibition at 1 mg/ml
# Protocol: Hyaluronidase activity was quantitatively determined by measuring the extent of hyaluronic acid hydrolysis (i.e., the concentration of N-acetylglucosamine-reactive material formed from enzyme activity). Reaction mixtures (0.25 ml) containing the following were prepared: test compound (variable concentration); 0.1 M sodium acetate; 0.15 M sodium chloride; pH adjusted to 5.5; 7.2 units sheep testicular hyaluronidase (Sigma, Type III; H-2251) contained in an acetate buffer; 0.3 mg/ml hyaluronic acid (Sigma, from bovine vitreous humor; H-7630). The enzyme was preincubated with the test agent (1 mg/ml for screening purposes) for 10 minutes before starting the reaction by the addition of hyaluronic acid. The enzyme reaction was determined using the method of Aronson and Davidson (J. Biol. Chem. 241 437-440 (1967)). The reaction mixture was incubated for 30 minutes at room temperature. The reaction product was determined calorimetrically with p-dimethylaminobenzaldehyde (Reissig et al., J. Biol. Chem. 217 959-966 (1965)) by measuring the absorbance at 545 nm.
# The reversibility of the hyaluronidase was determined by evaluating enzyme activity at different levels of enzyme (Ackermann and Potter, Proc. Soc. Exp. Biol. Med. 72 1-9 (1949)).
# Lactobacillus gasseri = assay: effect on normal vaginal flora (Lactobacillus gasseri growth); assay type: cell-based; settings: 0.5 mg/ml
# Protocol: This example illustrates the effect of the inhibitory agents of this invention on the normal vaginal flora. Lactobacillus gasseri, which is found in normal vaginal flora, was obtained from the American Type Culture Collection (Rockville, Md.) and cultured under anaerobic conditions at 37° C. in the presence of the desired test agents. Control samples without added test agents were also run. Samples were collected at twenty minute intervals starting at 120 minutes after the start of incubation through 240 minutes. The absorbance at 550 nm was used to estimate the cell density and inhibitory effects. Nonoxynol-9 was also evaluated for comparison purposes.
# [2] = test system: vaginal/cervical epithelial and other cells; settings: cited from earlier work
substance,measurement,setting,value
Nonoxynol-9,cytotoxic towards the MT2 cells,MT2 cells,did show cytotoxic effects
same,IC50 hyaluronidase,[1],inactive
same,inhibition of growth of Lactobacillus gasseri,Lactobacillus gasseri,about 60%
same,lowest concentration that can injure vaginal/cervical epithelial and other cells,[2],about 0.0005%
